Assay results from patent US20110263647A1 (AMGEN INC., priority 2009, published 2011).
Structures can show the parent of a compound that is named as a salt.

System: not listed separately
Assay: In vivo pharmacokinetics, IV and oral gavage
Set-up: species or system male Sprague-Dawley rats
Details: male, Sprague-Dawley, plasma; rat, IV 0.5 mg/kg
Experimental: In vivo pharmacokinetic parameters were determined by measuring systemic plasma exposure in male Sprague-Dawley rats (Charles River Laboratories or Taconic, Oxnard, Calif.) by intravenous administration (N=3 fed rats: 2 mg/kg tail vein injection in DMSO) and oral gavage (N=3 fasted rats: 5 mg/kg in 1% Tween 80-2% HPMC-97% deionized water-pH 2.0 vehicle) (Comparative Example 18′ was only dosed IV and at 0.5 mg/kg). DMSO was obtained from Mallinckrodt Inc.; Tween 80 was obtained from Croda; HPMC is Methocel E50 Premium LV, obtained from Dow Excipients. Following oral administration, blood was drawn (250 μL) at 0.25, 0.5, 1, 2, 4, 6, 8, 12, and 16 hours. Following iv administration, blood was drawn (250 μL) at 0.083, 0.25, 0.5, 1, 2, 4, 6, 8, and 16 hours. Blood samples were drawn using a Culex® In Vivo Sampling System (BASi) and collected in BD Microtainer® tubes containing Lithium Heparin (BD). Plasma was obtained by centrifugation of blood at 14000 g and 2-8° C. for five minutes using an Eppendorf 5417R Centrifuge System. Plasma samples were mixed with 2× volume of acetonitrile (Sigma-Aldrich, St. Louis, Mo.). The mixture was stirred briefly using a vortex mixer and then centrifuged at 2867 g for 5 minutes in a Beckman Coulter Allegra 25R equipped with a Type S5700 rotor. The supernatant was removed and diluted 2× with mobile phase A (5/94.9/0.1 v/v/v MeOH/water/AcOH). Plasma concentrations were determined using liquid chromatography/tandem mass spectrometry, with electrospray ionization (ESI) and multiple reaction monitoring in the positive ion mode (Sciex API 3000 mass spectrometer connected to a Shimadzu LC-20AD pump and a LEAP PAL autosampler. Typical conditions used for HPLC were: mobile phase A=5/94.9/0.1 v/v/v MeOH/water/AcOH and mobile phase B=95/4.9/0.1 v/v/v MeOH/water/AcOH; HPLC column was a Varian MonoChrom C18.3μ for 2×30 mm and 51.1 for 2×50 mm) Instrument response was calibrated by a standard curve over 0.1-2000 ng/mL concentration range, and the lower limit of quantitation was 0.1-2.5 ng/mL. Peak areas were integrated on a Windows 2000 computer using the Sciex program Analyst® (Version 1.4.1). Following peak area integration, the data were exported to the software package (Watson® Non-GLP PROD (Version 7.0.0.01, Thermo Electron Corp., Waltham, Mass.)), where concentrations were determined by a weighted linear regression of peak area versus the nominal concentrations of the calibration standards. Calculations were performed on unrounded numbers. The Watson® Non-GLP PROD software was used to determine precision and accuracy for the calibration standards. Noncompartmental analysis of plasma concentration data was used to generate PK parameters such as clearance (CL, L/h/kg), volume of distribution (Vss, L/kg), area under the curve (AUC, ng·h/mL) and secondary parameters such as half-life (t1/2, h) and oral bioavailability (% F, %). This was done using WinNonlin Enterprise software (Version 5.1.1, from Pharsight Corp., Mountain View, Calif.). References for pharmacokinetic analysis include: Gabrielsson and Weiner (1997) Pharmacokinetic and Pharmacodynamic Data Analysis Concepts and Applications, 2nd ed., Swedish Pharmaceutical Press, Stockholm; Gibaldi and Perrier (1982) Pharmacokinetics, 2nd ed., Marcel Dekker, New York. Rowland and Tozer (1995) Clinical Pharmacokinetics: Concepts and Applications, 3rd ed., Lippincott Williams & Wilkins, Philadelphia.

clearance	Compound
237 mL/min/kg	COCc1nc(NC[C@@H](N)Cc2ccc(C(F)(F)F)nc2)sc1-c1ccc2cnccc2c1 [Comparative Example 18′, (S)—N-1-(5-(Isoquinolin-6-yl)-4-(methoxymethyl)thiazol-2-yl)-3-(6-(trifluoromethyl)pyridin-3-yl)propane-1,2-diamine, reference compound]

Same assay, conditions: male, Sprague-Dawley, plasma; rat, IV 0.5 mg/kg; read-out: IV AUClast

AUC(0-t)	Compound
33 ng·h/mL	COCc1nc(NC[C@@H](N)Cc2ccc(C(F)(F)F)nc2)sc1-c1ccc2cnccc2c1 [Comparative Example 18′, (S)—N-1-(5-(Isoquinolin-6-yl)-4-(methoxymethyl)thiazol-2-yl)-3-(6-(trifluoromethyl)pyridin-3-yl)propane-1,2-diamine, reference compound]

Same assay, conditions: male, Sprague-Dawley, plasma; rat, IV 0.5 mg/kg; read-out: IV Cmax

Cmax	Compound
73 ng/mL	COCc1nc(NC[C@@H](N)Cc2ccc(C(F)(F)F)nc2)sc1-c1ccc2cnccc2c1 [Comparative Example 18′, (S)—N-1-(5-(Isoquinolin-6-yl)-4-(methoxymethyl)thiazol-2-yl)-3-(6-(trifluoromethyl)pyridin-3-yl)propane-1,2-diamine, reference compound]

Same assay, conditions: male, Sprague-Dawley, plasma; rat, IV 0.5 mg/kg; read-out: Vss

Vd	Compound
6.44 L/kg	COCc1nc(NC[C@@H](N)Cc2ccc(C(F)(F)F)nc2)sc1-c1ccc2cnccc2c1 [Comparative Example 18′, (S)—N-1-(5-(Isoquinolin-6-yl)-4-(methoxymethyl)thiazol-2-yl)-3-(6-(trifluoromethyl)pyridin-3-yl)propane-1,2-diamine, reference compound]

Target: T1, PKBα (Homo sapiens, UniProt P31749)
T1 construct: fused on or other part: His6 tag is likely on the Upstate products
T1 sequence (P31749 118-472 limits assumed): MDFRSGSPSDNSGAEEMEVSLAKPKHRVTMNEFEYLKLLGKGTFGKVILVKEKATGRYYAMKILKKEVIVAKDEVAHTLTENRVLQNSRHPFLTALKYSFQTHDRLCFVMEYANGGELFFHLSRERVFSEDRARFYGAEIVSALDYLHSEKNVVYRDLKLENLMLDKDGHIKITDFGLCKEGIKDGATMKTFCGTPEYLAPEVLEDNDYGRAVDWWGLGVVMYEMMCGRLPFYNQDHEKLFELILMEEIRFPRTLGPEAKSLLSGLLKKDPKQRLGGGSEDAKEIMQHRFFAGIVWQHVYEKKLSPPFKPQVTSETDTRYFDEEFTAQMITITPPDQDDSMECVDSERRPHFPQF
Assay: PKB kinase assay (P33-labeled ATP, peptide substrate, filter plate)
Assay type: biochemical
Details: with respect to PKBα
From the text: The kinase assay for evaluating PKB activity comprises active PKB enzymes, a PKB specific substrate, and P^33-labeled ATP. Two form of PKBα enzymes were used, the full length PKBα and a kinase domain of PKBα with pleckstrin domain (amino acids 1-117) deleted. Both PKB enzymes were obtained from Upstate cell signaling solutions (Cat.# 14-276 and 14-341). The PKB substrate used is a synthetic peptide (ARKRERTYSFGHHA (SEQ ID NO: 1)) as described in Obata et al., J. Biol. Chem. 275 (46), 36108-36115 (2000). The phosphorylated substrate was captured by a phosphocellulose membrane filter plate (MILLIPORE) and measured by a Wallac Microbeta liquid scintillation counter (Perkin Elmer). Table 1 provides the IC50 values obtained for each of the examples with respect to PKBα.

Compound	IC50
CNC(=O)c1nc(NC[C@@H](N)Cc2ccc(C(F)(F)F)nc2)sc1-c1ccc2cnc(F)cc2c1 [Example 17]	50 to 1000 nM
N[C@H](CNc1ncc(-c2ccc3cnc(F)cc3c2)s1)Cn1cnc(C(F)(F)F)c1 [Example 28, N—((R)-2-Amino-3-(4-(trifluoromethyl)-1H-imidazol-1-yl)propyl)-5-(3-fluoroisoquinolin-6-yl)thiazol-2-amine]	50 to 1000 nM
N[C@H](CNc1ncc(-c2ccc3cnc(F)cc3c2)s1)Cc1cnc(F)c(Cl)c1 [Example 40, N—((S)-2-Amino-3-(5-chloro-6-fluoropyridin-3-yl)propyl)-5-(3-fluoroisoquinolin-6-yl)thiazol-2-amine]	50 to 1000 nM
COCc1nc(NC[C@H](N)Cc2ccc(C(F)(F)F)nc2)sc1-c1ccc2cnc(F)cc2c1 [Example 19, N—((R)-2-Amino-3-(6-(trifluoromethyl)pyridin-3-yl)propyl)-5-(3-fluoroisoquinolin-6-yl)-4-(methoxymethyl)thiazol-2-amine]	1000 to 10000 nM
COCc1nc(NC[C@@H](N)Cc2ccc(C(F)(F)F)cc2)sc1-c1ccc2cnc(F)cc2c1 [Example 24, N—((S)-2-Amino-3-(4-(trifluoromethyl)phenyl)propyl)-5-(3-fluoroisoquinolin-6-yl)-4-(methoxymethyl)thiazol-2-amine]	< 50 nM
CC(F)(F)c1ccc(C[C@H](N)CNc2nc(CO)c(-c3ccc4cnc(F)cc4c3)s2)cn1 [Example 9, (2-((S)-2-Amino-3-(6-(1,1-difluoroethyl)pyridin-3-yl)propylamino)-5-(3-fluoroisoquinolin-6-yl)thiazol-4-yl)methanol]	< 50 nM
N[C@H](CNc1nc(CO)c(-c2ccc3cnc(F)cc3c2)s1)Cc1ccc(C(F)(F)F)nc1 [Example 16, (2-((S)-2-Amino-3-(6-(trifluoromethyl)pyridin-3-yl)propylamino)-5-(3-fluoroisoquinolin-6-yl)thiazol-4-yl)methanol]	< 50 nM
COCc1nc(NC[C@@H](N)Cc2ccc(C(C)(F)F)nc2)sc1-c1ccc2cnc(F)cc2c1 [Example 6, N—((S)-2-Amino-3-(6-(1,1-difluoroethyl)pyridin-3-yl)propyl)-5-(3-fluoroisoquinolin-6-yl-4-(methoxymethyl)thiazol-2-amine trifluoroacetate]	< 50 nM
COC(=O)c1ccc(C[C@H](N)CNc2ncc(-c3ccc4cnc(F)cc4c3)s2)cc1 [Example 45]	50 to 1000 nM
N[C@H](CNc1nc(CO)c(-c2ccc3cnc(F)cc3c2)s1)Cc1ccc(C(F)(F)F)cc1 [Example 21, (2-((S)-2-Amino-3-(4-(trifluoromethyl)phenyl)propylamino)-5-(3-fluoroisoquinolin-6-yl)thiazol-4-yl)methanol]	< 50 nM
CNC(=O)c1nc(NC[C@@H](N)Cc2ccc(C(F)(F)F)cc2)sc1-c1ccc2cnc(F)cc2c1 [Example 22, 2-((S)-2-Amino-3-(4-(trifluoromethyl)phenyl)propylamino)-5-(3-fluoroisoquinolin-6-yl)-N-methylthiazole-4-carboxamide trifluoroacetate]	50 to 1000 nM
N[C@@H](CNc1ncc(-c2ccc3cnc(F)cc3c2)s1)Cc1ccc(C(F)(F)F)nc1 [Example 47, (2R)—N^1-(5-(3-Fluoro-6-isoquinolinyl)-1,3-thiazol-2-yl)-3-(6-(trifluoromethyl)-3-pyridinyl)-1,2-propanediamine]	1000 to 10000 nM
COC[C@@H](c1ccc(C(F)(F)F)cc1)[C@H](N)CNc1ncc(-c2ccc3cnc(F)cc3c2)s1 [Example 32, N-((2S,3S)-2-Amino-4-methoxy-3-(4-(trifluoromethyl)phenyl)butyl)-5-(3-fluoroisoquinolin-6-yl)thiazol-2-amine]	< 50 nM
N[C@H](CNc1ncc(-c2ccc3cnc(F)cc3c2)s1)Cc1cnc(C(F)(F)F)nc1 [Example 26, N—((S)-2-Amino-3-(2-(trifluoromethyl)pyrimidin-5-yl)propyl)-5-(3-fluoroisoquinolin-6-yl)thiazol-2-amine]	< 50 nM
N[C@H](CNc1ncc(-c2ccc3cnc(F)cc3c2)s1)Cc1ccc(Cl)cc1 [Example 5, N—((S)-2-Amino-3-(4-chlorophenyl)propyl)-5-(3-fluoroisoquinolin-6-yl)thiazol-2-amine]	< 50 nM

Second part, the compound after the results:

IC50	Compound
< 50 nM	COCc1nc(NCC(N)[C@@H](C)c2ccc(C(F)(F)F)cc2)sc1-c1ccc2cnc(F)cc2c1 (stereo in doubt) [Example 27, N-((2R,3S)-2-Amino-3-(4-(trifluoromethyl)phenyl)butyl)-5-(3-fluoroisoquinolin-6-yl)-4-(methoxymethyl)thiazol-2-amine]
< 50 nM	C[C@@H](c1ccc(C(F)(F)F)nc1)[C@H](N)CNc1nc(CO)c(-c2ccc3cnc(F)cc3c2)s1 [Example 12, (2-((2S,3S)-2-Amino-3-(6-(trifluoromethyl)pyridin-3-yl)butylamino)-5-(3-fluoroisoquinolin-6-yl)thiazol-4-yl)methanol]
< 50 nM	COC(=O)c1nc(NC[C@@H](N)Cc2ccc(C(C)(F)F)nc2)sc1-c1ccc2cnc(F)cc2c1 [Example 8, Methyl 2-((S)-2-amino-3-(6-(1,1-difluoroethyl)pyridin-3-yl)propylamino)-5-(3-fluoroisoquinolin-6-yl)thiazole-4-carboxylate]
< 50 nM	COC(=O)c1nc(NC[C@@H](N)Cc2ccc(C(F)(F)F)nc2)sc1-c1ccc2cnc(F)cc2c1 [Example 15, Methyl 2-((S)-2-amino-3-(6-(trifluoromethyl)pyridin-3-yl)propylamino)-5-(3-fluoroisoquinolin-6-yl)thiazole-4-carboxylate]
< 50 nM	N[C@H](CNc1ncc(-c2ccc3cnc(F)cc3c2)s1)Cc1ccc2c(c1)OCCO2 [Example 43, N—((S)-2-Amino-3-(2,3-dihydrobenzo[b][1,4]dioxin-6-yl)propyl)-5-(3-fluoroisoquinolin-6-yl)thiazol-2-amine]
< 50 nM	N[C@H](CNc1ncc(-c2ccc3cnc(F)cc3c2)s1)Cc1ccc(C(F)(F)F)nc1Cl [Example 31, N—((S)-2-Amino-3-(2-chloro-6-(trifluoromethyl)pyridin-3-yl)propyl)-5-(3-fluoroisoquinolin-6-yl)thiazol-2-amine]
< 50 nM	CC(F)(F)c1ccc(C[C@H](N)CNc2ncc(-c3ccc4cnc(F)cc4c3)s2)cc1 [Example 3, N—((S)-2-Amino-3-(4-(1,1-difluoroethyl)phenyl)propyl)-5-(3-fluoroisoquinolin-6-yl)thiazol-2-amine]
< 50 nM	COCO[C@@H](c1ccc(C(F)(F)F)cc1)[C@H](N)CNc1ncc(-c2ccc3cnc(F)cc3c2)s1 [Example 39]
